In US20120015907A1, “Furopyridine compounds and uses thereof” (NOVARTIS AG, priority 2010, published 2012):
Read-outs that look alike come from different tables or passages of the source.

Target: T1, HCV polymerase (Hepatitis C virus genotype 1b, UniProt Q9WMX2)
T1 construct: (His)6 (C)
Experiment: biochemical
Settings: polymerase assay of Biological Example 1

Row | SMILES | IC50 (read-out: NS5B polymerase IC50) | IC50 (NS5B polymerase IC50 μM)
1 | CNC(=O)c1c(-c2ccc(F)cc2)oc2nc(N(C)S(C)(=O)=O)c(CCCC(=O)N3CCC[C@H]3C(N)=O)cc12 [Example 4.4, (S)-5-(4-(2-carbamoylpyrrolidin-1-yl)-4-oxobutyl)-2-(4-fluorophenyl)-N-methyl-6-(N-methylmethylsulfonamido)furo[2,3-b]pyridine-3-carboxamide] | 0.2 µM | –
2 | CCc1cc2c(C(=O)NC)c(-c3ccc(F)cc3)oc2nc1N(CCCS(=O)(=O)C(C)(C)C)S(C)(=O)=O [Example 23.93, 6-(N-(3-(tert-butylsulfonyl)propyl)methylsulfonamido)-5-ethyl-2-(4-fluorophenyl)-N-methylfuro[2,3-b]pyridine-3-carboxamide] | 0.044 µM | –
3 | CNC(=O)c1c(-c2ccc(C)cc2)oc2nc(N(CCCCCN)S(C)(=O)=O)c(C3CC3)cc12 [Example 23.999994, 6-(N-(5-aminopentyl)methylsulfonamido)-5-cyclopropyl-N-methyl-2-p-tolylfuro[2,3-b]pyridine-3-carboxamide] | 0.014 µM | –
4 | CNC(=O)c1c(-c2ccc(C)cc2)oc2nc(N(CCC[C@H](COC)C(=O)N3C(=O)OC[C@@H]3Cc3ccccc3)S(C)(=O)=O)c(C3CC3)cc12 [Example 47.72] | 0.006 µM | –
5 | CNC(=O)c1c(-c2ccc(C)cc2)oc2nc(N(C)S(C)(=O)=O)c(CCCO)cc12 [Example 9.2, 5-(3-hydroxypropyl)-N-methyl-6-(N-methylmethylsulfonamido)-2-p-tolylfuro[2,3-b]pyridine-3-carboxamide] | 0.082 µM | –
6 | CCc1cc2c(C(=O)NC)c(-c3ccc(F)cc3)oc2nc1N(CCOc1cccc(C(=O)OC)c1)S(C)(=O)=O [Example 22.6, methyl 3-(2-(N-(5-ethyl-2-(4-fluorophenyl)-3-(methylcarbamoyl)furo[2,3-b]pyridin-6-yl)methylsulfonamido)ethoxy)benzoate] | 0.251 µM | –
7 | CNC(=O)c1c(-c2ccc(F)cc2)oc2nc(N(C)S(C)(=O)=O)c(CCCCC(N)=O)cc12 [Example 4.95, 5-(5-amino-5-oxopentyl)-2-(4-fluorophenyl)-N-methyl-6-(N-methylmethylsulfonamido)furo[2,3-b]pyridine-3-carboxamide] | 0.016 µM | –
8 | CCc1cc2c(C(=O)NC)c(-c3ccc(F)cc3)oc2nc1N(CCCS(=O)(=O)C1CC1)S(C)(=O)=O [Example 23.991, 6-(N-(3-(cyclopropylsulfonyl)propyl)methylsulfonamido)-5-ethyl-2-(4-fluorophenyl)-N-methylfuro[2,3-b]pyridine-3-carboxamide] | 0.061 µM | –
9 | CNC(=O)c1c(-c2ccc(F)cc2)oc2nc(N(CCCS(C)(=O)=O)S(C)(=O)=O)c(I)cc12 [Example 18.993, 2-(4-fluorophenyl)-5-iodo-N-methyl-6-(N-(3-(methylsulfonyl)propyl)methylsulfonamido)furo[2,3-b]pyridine-3-carboxamide] | 0.112 µM | –
10 | CNC(=O)c1c(-c2ccc(F)cc2)oc2nc(N(CCN3CCOCC3)S(C)(=O)=O)c(I)cc12 [Example 18.4, 2-(4-fluorophenyl)-5-iodo-N-methyl-6-(N-(2-morpholinoethyl)methylsulfonamido)furo[2,3-b]pyridine-3-carboxamide] | 0.26 µM | –
11 | CCc1cc2c(C(=O)NC)c(-c3ccc(F)cc3)oc2nc1N(CCCCC(=O)N(C)C)S(C)(=O)=O [Example 22.992, 6-(N-(5-(dimethylamino)-5-oxopentyl)methylsulfonamido)-5-ethyl-2-(4-fluorophenyl)-N-methylfuro[2,3-b]pyridine-3-carboxamide] | 0.041 µM | –
12 | CNC(=O)c1c(-c2ccc(C)cc2)oc2nc(N(CCCCC#N)S(C)(=O)=O)c(C3CC3)cc12 [Example 29.6, 6-(N-(4-cyanobutyl)methylsulfonamido)-5-cyclopropyl-N-methyl-2-p-tolylfuro[2,3-b]pyridine-3-carboxamide] | 0.002 µM | –
13 | CN(c1nc2oc(-c3ccc(F)cc3)c(C(N)=O)c2cc1C1CC1)S(C)(=O)=O [Example 2.6] | 0.297 µM | –
14 | CCc1cc2c(C(=O)NC)c(-c3ccc(F)cc3)oc2nc1N(CCOc1ccc(C(=O)OC)cc1)S(C)(=O)=O [Example 22.7, methyl 4-(2-(N-(5-ethyl-2-(4-fluorophenyl)-3-(methylcarbamoyl)furo[2,3-b]pyridin-6-yl)methylsulfonamido)ethoxy)benzoate] | 0.053 µM | –
15 | CNC(=O)c1c(-c2ccc(Cl)cc2)oc2nc(N(CCCS(C)(=O)=O)S(C)(=O)=O)c(I)cc12 [Example 18.991, 2-(4-chlorophenyl)-5-iodo-N-methyl-6-(N-(3-(methylsulfonyl)propyl)methylsulfonamido)furo[2,3-b]pyridine-3-carboxamide] | 0.029 µM | –
16 | CNC(=O)c1c(-c2ccc(C)cc2)oc2nc(N(CCCCP(C)(=O)O)S(C)(=O)=O)c(C3CC3)cc12 [Example 23.99999, 4-(N-(5-cyclopropyl-3-(methylcarbamoyl)-2-p-tolylfuro[2,3-b]pyridin-6-yl)methylsulfonamido)butyl (methyl)phosphinic acid] | – | 0.006 µM

Row | SMILES | IC50 (read-out: NS5B polymerase IC50) | IC50 (NS5B polymerase IC50 μM)
17 | CNC(=O)c1c(-c2ccc(F)cc2)oc2nc3c(cc12)CCCCN(S(C)(=O)=O)CCCN3S(C)(=O)=O [Example 36.5, 2-(4-Fluoro-phenyl)-9,13-bis-methanesulfonyl-6,7,8,9,10,11,12,13-octahydro-5H-1-oxa-9,13,14-triaza-cycloundeca[f]indene-3-carboxylic acid methylamide] | 0.474 µM | –
18 | CNC(=O)c1c(-c2ccc(F)cc2)oc2nc(N(CCCCC#N)S(C)(=O)=O)c(I)cc12 [Example 18.9, 6-(N-(4-cyanobutyl)methylsulfonamido)-2-(4-fluorophenyl)-5-iodo-N-methylfuro[2,3-b]pyridine-3-carboxamide] | 0.109 µM | –
19 | CCc1cc2c(C(=O)NC)c(-c3ccc(F)cc3)oc2nc1N(CCCN(C)C(C)=O)S(C)(=O)=O [Example 23.997, 5-ethyl-2-(4-fluorophenyl)-N-methyl-6-(N-(3-(N-methylacetamido)propyl)methylsulfonamido)furo[2,3-b]pyridine-3-carboxamide] | 0.058 µM | –
20 | CNC(=O)c1c(-c2ccc(C)cc2)oc2nc(N(CCC[C@H](C)C(=O)OCOP(=O)(O)O)S(C)(=O)=O)c(C3CC3)cc12 [Example 49, (S)-(phosphonooxy)methyl 5-(N-(5-cyclopropyl-3-(methylcarbamoyl)-2-(p-tolyl)furo[2,3-b]pyridin-6-yl)methylsulfonamido)-2-methylpentanoate] | 0.002 µM | –
21 | CNC(=O)c1c(-c2ccc(C)cc2)oc2nc(N(CCOCCCC(=O)O)S(C)(=O)=O)c(C3CC3)cc12 [Example 23.999998, 4-(2-(N-(5-cyclopropyl-3-(methylcarbamoyl)-2-p-tolylfuro[2,3-b]pyridin-6-yl)methylsulfonamido)ethoxy)butanoic acid] | 0.005 µM | –
22 | CCc1cc2c(C(=O)NC)c(-c3ccc(F)cc3)oc2nc1N(CCCS(=O)(=O)N1CCCC1)S(C)(=O)=O [Example 22.91, 5-ethyl-2-(4-fluorophenyl)-N-methyl-6-(N-(3-(pyrrolidin-1-ylsulfonyl)propyl)methylsulfonamido)furo[2,3-b]pyridine-3-carboxamide] | 0.034 µM | –
23 | C=C(C)c1cc2c(C(=O)NC)c(-c3ccc(F)cc3)oc2nc1N(C)S(C)(=O)=O [Example 2.4, 2-(4-fluorophenyl)-N-methyl-6-(N-methylmethylsulfonamido)-5-(prop-1-en-2-yl)furo[2,3-b]pyridine-3-carboxamide] | 0.132 µM | –
24 | CNC(=O)c1c(-c2ccc(C)cc2)oc2nc(N(CCCC3(C(=O)O)CCN(C(C)=O)CC3)S(C)(=O)=O)c(C3CC3)cc12 [Example 29.99992, 1-acetyl-4-(3-(N-(5-cyclopropyl-3-(methylcarbamoyl)-2-p-tolylfuro[2,3-b]pyridin-6-yl)methylsulfonamido)propyl) piperidine-4-carboxylic acid] | 0.002 µM | –
25 | C=CCCN(c1nc2oc(-c3ccc(C)cc3)c(C(=O)NC)c2cc1C1CC1)S(C)(=O)=O [Example 29.98, 6-(N-(but-3-enyl)methylsulfonamido)-5-cyclopropyl-N-methyl-2-p-tolylfuro[2,3-b]pyridine-3-carboxamide] | 0.017 µM | –
26 | CCc1cc2c(C(=O)NC)c(-c3ccc(F)cc3)oc2nc1N(CCCCS(=O)(=O)c1ccccc1)S(C)(=O)=O [Example 23.8, 5-ethyl-2-(4-fluorophenyl)-N-methyl-6-(N-(4-(phenylsulfonyl)butyl)methylsulfonamido)furo[2,3-b]pyridine-3-carboxamide] | 0.058 µM | –
27 | C#Cc1cc2c(C(=O)NC)c(-c3ccc(F)cc3)oc2nc1N(C)S(C)(=O)=O [Example 7, 5-ethynyl-2-(4-fluorophenyl)-N-methyl-6-(N-methylmethylsulfonamido)furo[2,3-b]pyridine-3-carboxamide] | 0.06 µM | –
28 | CNC(=O)c1c(-c2ccc(C)cc2)oc2nc(N(CCCC(=O)O)S(C)(=O)=O)c(C3CC3)cc12 [Example 28.9, 4-(N-(5-cyclopropyl-3-(methylcarbamoyl)-2-p-tolylfuro[2,3-b]pyridin-6-yl)methylsulfonamido) butanoic acid] | 0.002 µM | –
29 | CNC(=O)c1c(-c2ccc(F)cc2)oc2nc3c(cc12)C(C)C(O)CCCCN3S(C)(=O)=O (centres unmarked) [Example 38, 2-(4-Fluoro-phenyl)-6-hydroxy-11-methanesulfonyl-5-methyl-6,7,8,9,10,11-hexahydro-5H-1-oxa-11,12-diaza-cyclonona[f]indene-3-carboxylic acid methylamide] | 0.509 µM | –
30 | C=C1OCCN(S(C)(=O)=O)c2nc3oc(-c4ccc(F)cc4)c(C(=O)NC)c3cc21 [Example 36.1, 2-(4-Fluoro-phenyl)-9-methanesulfonyl-5-methylene-5,7,8,9-tetrahydro-1,6-dioxa-9,10-diaza-cyclohepta[f]indene-3-carboxylic acid methylamide] | 0.046 µM | –
31 | CNC(=O)c1c(-c2ccc(C)cc2)oc2nc(N(CCCC#N)S(C)(=O)=O)c(C3CC3)cc12 [Example 29.5, 6-(N-(3-cyanopropyl)methylsulfonamido)-5-cyclopropyl-N-methyl-2-p-tolylfuro[2,3-b]pyridine-3-carboxamide] | 0.002 µM | –
32 | CNC(=O)c1c(-c2ccc(C)cc2)oc2nc(N(CCCC(C)C(=O)O)S(C)(=O)=O)c(C3CC3)cc12 (centres unmarked) [Example 29.9994, 5-(N-(5-cyclopropyl-3-(methylcarbamoyl)-2-p-tolylfuro[2,3-b]pyridin-6-yl)methylsulfonamido)-2-methylpentanoic acid] | 0.002 µM | –
